Results on four compounds are retold here after patent US12410155B2, “Salt form and crystal form of tetrahydrocyclohepta indazole compound” (Zhejiang Yangli Pharmaceutical Technology Co., Ltd., priority 2021, dated 2025).

Where two headings read alike, the source gives them in different places.

The nature of series [1]: Pharmacokinetic study in Beagle dogs. Particulars: both sexes, dog, plasma, Beagles. Format: in vivo. Here is the method:
(4) Pharmacokinetic Study in Beagle Dogs
Objective: To determine the concentration of the test compound in plasma at various time points after intravenous and intragastric administration in male and female Beagle dogs using the LC/MS/MS method.
An appropriate amount of the sample was weighed and prepared into 0.2 mg/mL and 0.3 mg/mL solutions, stirred until a clear solution was obtained, with 20% SBE-β-CD as the vehicle.
Administration: After an overnight fast, the IV group received intravenous administration at a dose of 0.3 mg/kg; the PO group received intragastric administration at a dose of 1 mg/kg.
For the intravenous injection group, Beagle dogs were administered the test compound, and blood samples (800 μL) were collected from the peripheral vein at 0.25, 0.5, 1, 2, 4, 6, 8, 24, 32, 48, 72, and 96 hours post-administration. The samples were placed into commercially available anticoagulant tubes pre-filled with EDTA-K2. For the intragastric administration group, after administering the test compound, blood samples (800 μL) were collected from the peripheral vein at 0.25, 0.5, 1, 2, 4, 6, 8, 24, 32, 48, 72, and 96 hours. These samples were also placed into commercially available anticoagulant tubes pre-filled with EDTA-K2. Following centrifugation (3,200 g, 2-8° C., 10 minutes), the plasma was transferred to pre-chilled centrifuge tubes, flash-frozen in dry ice, and stored in an ultra-low temperature freezer at −60° C. or lower until LC-MS/MS analysis. Animals were allowed to eat 4 hours post-dosing. The concentration of the test compound in the plasma of Beagle dogs after intravenous and intragastric administration was determined using the LC/MS/MS method.

Series [2] is described as follows: Pharmacokinetic study in rats. The class given is in vivo. Particulars: both sexes, Sprague-Dawley, rat, plasma. Here is the method: (3) Pharmacokinetic Study in Rats
Objective: To determine the concentration of the test compound in plasma at various time points after intravenous and intragastric administration in male and female Sprague-Dawley rats using the LC/MS/MS method.
An appropriate amount of the sample was weighed and prepared into a 0.2 mg/ml solution, and stirred until a clear solution was obtained, with 20% SBE-β-CD as the vehicle.
Administration: After an overnight fast, the IV group received intravenous administration at a dose of 1 mg/kg; the PO group received intragastric administration at a dose of 2 mg/kg.
For the intravenous injection group, male and female Sprague-Dawley rats were administered the test compound, and blood samples (200 μL) were collected from the jugular vein at 0.0830, 0.250, 0.500, 1.00, 2.00, 4.00, 6.00, 8.00, 24.0, 32.0, and 48.0 hours post-administration. The samples were placed into commercially available anticoagulant tubes pre-filled with EDTA-K2. For the intragastric administration group, after administering the test compound, blood samples (200 μL) were collected from the jugular vein at 0.250, 0.500, 1.00, 2.00, 4.00, 6.00, 8.00, 24.0, 32.0, and 48.0 hours. These samples were also placed into commercially available anticoagulant tubes pre-filled with EDTA-K2. Following centrifugation (3,200 g, 4° C., 10 minutes), the plasma was transferred to pre-chilled centrifuge tubes, flash-frozen in dry ice, and stored in an ultra-low temperature freezer at −60° C. or lower until LC-MS/MS analysis. Animals were allowed to eat 4 hours post-dosing. The concentration of the test compound in the plasma of rats after intravenous and intragastric administration was determined using the LC/MS/MS method.

Series [3] can be described thus: Pharmacokinetic study in mice. Format: in vivo. Particulars: female, Balb/c, mouse, plasma. Here is the method: (2) Pharmacokinetic Study in Mice
Objective: To determine the concentration of the test compound in plasma at various time points after intravenous and intragastric administration in female Balb/c mice using the LC/MS/MS method. To investigate the pharmacokinetic behavior of the crystal form C of the compound of formula (I) in mice and to evaluate its pharmacokinetic characteristics.
Administration: After an overnight fast, the IV group received intravenous administration at a dose of 5 mg/kg; the PO group received intragastric administration at a dose of 10 mg/kg.
For the intravenous injection group, female Balb/c mice were administered the test compound, and blood samples (30 μL) were collected from the saphenous vein at 0.0833, 0.25, 0.5, 1, 2, 4, 8, and 24 hours post-administration. The samples were placed into commercially available anticoagulant tubes pre-filled with EDTA-K2. For the intragastric administration group, after administering the test compound, blood samples (30 μL) were collected from the jugular vein at 0.25, 0.5, 1, 2, 4, 8, 12, and 24 hours. These samples were also placed into commercially available anticoagulant tubes pre-filled with EDTA-K2. Following centrifugation (3,200 g, 4° C., 10 minutes), the plasma was transferred to pre-chilled centrifuge tubes, flash-frozen in dry ice, and stored in an ultra-low temperature freezer at −60° C. or lower until LC-MS/MS analysis. Animals were allowed to eat 4 hours post-dosing. The concentration of the test compound in the plasma of mice after intravenous and intragastric administration was determined using the LC/MS/MS method.

The subject of series [4] is human breast cancer MCF-7 cell subcutaneous xenograft tumor. The class given is in vivo. Particulars: for Tumor volume (mm^3) (Day 0): Day 0 (at grouping); for RTV (Day 21) / Tumor volume (mm^3) (Day 21) / T/C (%) / TGI (%): Day 21. Here is the method: (1) In Vivo Pharmacodynamic Study of Breast Cancer MCF-7 Cell Subcutaneous Xenograft Tumor BALB/c Nude Mouse Model
Objective: This study aimed to evaluate the in vivo efficacy of the crystal form C of the compound of formula (I) using a human breast cancer MCF-7 cell subcutaneous xenograft tumor model in nude mice.
Routine digestion with trypsin-EDTA (Gibco) was performed twice a week for passaging.
Cell inoculation: Estrogen pellets (0.36 mg/pellet; IRA) were subcutaneously inoculated into the left dorsum of each mouse. Three days later, 0.2 mL (1×10^7 cells) of MCF-7 cells (mixed with Matrigel; CORNING, volume ratio 1:1) were subcutaneously inoculated into the right dorsum of each mouse. When the average tumor volume reached 188 mm^3, the mice were grouped and the administration of compounds began.
An appropriate amount of the compound of formula (I) was weighed and prepared into 0.1, 0.3, 1, and 3 mg/mL solutions. […] Fulvestrant was used as the commercially available injection Faslodex.
The antitumor efficacy of the compounds was evaluated using Tumor Growth Inhibition (TGI, %) and relative tumor proliferation rate (T/C, %).
The Q value of combined medication index was calculated using the Jin formula. The criteria for judgment were as follows: a Q value of 0.85 to 1.15 indicated […] (+); a Q value>1.15 to 2.0 indicated enhancement (++); a Q value<0.85 to 0.55 indicated antagonism (−); and a Q value<0.55 indicated significant antagonism (−−). The formula was Q=Ea+b/(Ea+Eb−Ea×Eb), where Ea+b was the tumor inhibition rate of the combined medication group, and Ea and Eb were the tumor inhibition rates of the single medication groups, respectively.
Inter-group comparisons were analyzed using one-way ANOVA. […] A p value<0.05 was considered to indicate a significant difference.

A further series concerns breast cancer. The following applies: intramuscular injection; cited from earlier work.
For series [5] the following is noted: in vivo; cited from earlier work.

One may read the AUC(0-t) as exposure summed from dosing to a finite time, without extrapolation to infinity. Broadly, the clearance is the volume of plasma or blood freed of the substance per unit of time. A higher clearance goes with efficient removal. For orientation: half-life means the time in which the quantity being followed falls by half. A high value points to slow loss. As a reminder, the Cmax is the highest concentration seen after dosing. Broadly, the bioavailability is dose-corrected exposure relative to a reference, in per cent. In series [1] (IV, 0.3 mg/kg), `CS(=O)(=O)O.FCCCN1CC[C@H](Nc2cnc(C3=C(CC(F)(F)F)CCCc4c3ccc3[nH]nc(F)c43)cn2)C1` showed an AUC(0-t) of 1.31 µM·h, a clearance of 3.8 mL/min/kg and a half-life of 24.2 h. Besides, the Vd in series [1] (IV, 0.3 mg/kg, read-out: Vdss) was 7.48 L/kg. Besides, in series [1] (PO, 1 mg/kg), the AUC(0-t) stood at 2.27 µM·h, the Cmax amounted to 61 nM, the bioavailability is 52% and the half-life was 21.6 h. In series [2] (IV, 1 mg/kg), this compound had an AUC(0-t) of 1.71 µM·h, a clearance of 22.1 mL/min/kg and a half-life of 10.6 h. Moreover, the Vd in series [2] (IV, 1 mg/kg, read-out: Vdss) was determined as 13.6 L/kg. In series [2] (PO, 2 mg/kg), this compound gave an AUC(0-t) of 1.63 µM·h, a Cmax of 87.7 nM, a bioavailability of 47.7% and a half-life of 10.3 h.
As for `FCCCN1CC[C@H](Nc2cnc(C3=C(CC(F)(F)F)CCCc4c3ccc3[nH]nc(F)c43)cn2)C1`, in series [3] (IV, 5 mg/kg), the AUC(0-t) was 5.27 µM·h, the clearance was 30.2 mL/min/kg and the half-life was 5.16 h. Moreover, in series [3] (IV, 5 mg/kg, read-out: Vdss), the Vd is 11.1 L/kg. In series [3] (PO, 10 mg/kg), this compound showed an AUC(0-t) of 5.86 µM·h, a Cmax of 779 nM, a bioavailability of 55.4% and a half-life of 4.72 h. Also, in series [4] (1 mg/kg, PO, QD), the ORR % was determined as 0%, the “Tumor volume (mm^3) (Day 0)” value was 188 ± 12 mm^3, the “RTV (Day 21)” value worked out at 1.82 ± 0.12 and the “Tumor volume (mm^3) (Day 21)” value is given as 340 ± 30 mm^3. In series [4] (3 mg/kg, PO, QD), the DCR % was 100%, the ORR % is 0%, the “Tumor volume (mm^3) (Day 0)” value came out at 188 ± 13 mm^3 and the “RTV (Day 21)” value is on record as 0.99 ± 0.11. In addition, the “Tumor volume (mm^3) (Day 21)” value in series [4] (3 mg/kg, PO, QD) was found to be 179 ± 14 mm^3. Further, in series [4] (10 mg/kg, PO, QD), the “Tumor volume (mm^3) (Day 0)” value is 188 ± 12 mm^3, the “RTV (Day 21)” value was 0.75 ± 0.09 and the “Tumor volume (mm^3) (Day 21)” value was determined as 140 ± 18 mm^3. In addition, in series [4] (30 mg/kg, PO, QD), the “Tumor volume (mm^3) (Day 0)” value was determined as 188 ± 12 mm^3, the “RTV (Day 21)” value was determined as 0.64 ± 0.07 and the “Tumor volume (mm^3) (Day 21)” value is given as 121 ± 13 mm^3. The “Tolerability in tumor-bearing mice” value in series [4] (1 to 30 mg/kg, PO, QD) was “tolerated the crystal form C of the compound of formula (I) well”.
On to `C[C@]12CC[C@@H]3c4ccc(O)cc4C[C@@H](CCCCCCCCC[S+]([O-])CCCC(F)(F)C(F)(F)F)[C@H]3[C@@H]1CC[C@@H]2O` (stereo partly drawn) [Fulvestrant, reference compound], for which the “breast cancer patients showing a clinical response” value in the series on breast cancer is recorded as “about 50%”. Further, in series [5], the oral bioavailability entry was “near-zero”. Besides, in series [4] (5 mg/mouse, SC, QW), the DCR % is 0%, the “Tumor volume (mm^3) (Day 0)” value is 188 ± 12 mm^3, the “RTV (Day 21)” value is 3.12 ± 0.31 and the “T/C (%)” value came out at 46.9%. In series [4] (5 mg/mouse, SC, QW), the “TGI (%)” value was determined as 60.9% and the “Tumor volume (mm^3) (Day 21)” value was found to be 593 ± 79 mm^3. Besides, the “Tumor volume (mm^3) (Day 21)” value in series [4] (5 mg/mouse, SC, QW, listed as fulvestrant) was found to be 593 mm^3.
For the compound `CC(=O)c1c(C)c2cnc(Nc3ccc(N4CCNCC4)cn3)nc2n(C2CCCC2)c1=O` [Palbociclib, reference compound], in series [4] (25 mg/kg, PO, QD), the DCR % turned out to be 12.5%, the ORR % is given as 0%, the “Tumor volume (mm^3) (Day 0)” value came out at 188 ± 12 mm^3 and the “RTV (Day 21)” value is reported as 4.26 ± 0.51. In series [4] (25 mg/kg, PO, QD), the “T/C (%)” value came to 64.0%, the “TGI (%)” value turned out to be 42.8% and the “Tumor volume (mm^3) (Day 21)” value is reported as 781 ± 77 mm^3. Moreover, in series [4] (25 mg/kg, PO, QD, listed as palbociclib), the “Tumor volume (mm^3) (Day 21)” value is recorded as 781 mm^3.
